Values quoted from earlier work in patent US20230345944A1, “Purified and Enhanced Hydrogen Peroxide Disinfecting Solution for the Rapid Inactivation of COVID-19 and Other Pathogens” (Alira Health Boston LLC, priority 2021, published 2023).

Test system: bacteria
Settings: hydrogen peroxide on its own

OO [hydrogen peroxide]
minimal inhibitory concentration (MIC): about 1 mM
